Columns and labels:
[1] = system: TNFα-induced apoptosis, WEHI-13VAR cells; assay: TNFα induced apoptosis in WEHI-13VAR cells (MTT); format: cell-based, murine; conditions: Mus musculus
Protocol: Effect of compounds on TNFα-induced apoptosis was measured by a standard biological assay using WEHI-13VAR cells. These cells undergo apoptosis when they are incubated in the presence of TNFα and actinomycin D. 2×10^4 WEHI-13VAR cells were incubated in RPMI supplemented with 1% sodium pyruvate and 10% FBS, overnight at 37° C. for cell adherence. The cells were then cultured in the presence of 1 μg/mL of actinomycin D (to inhibit protein synthesis) and 0.04 nM TNFα with or without compounds at 37° C. After 16-24 h, 50 μL of a solution of 2 mg/mL of MTT was added to each well and the plate was then incubated for 4 h at 37° C. Only viable cells metabolize MTT to form formazan salt, which is detectable by the measurement of absorbance at 570 nm. After the incubation, the plate was inverted to remove medium and dead cells. 150 μL DMSO was added to each well to stop the reaction and solubilize the formazan salt. Optical density was read on a EL 800, universal Microplate reader (Bio-Tek). A decrease in the optical density is direct evidence of cell apoptosis induced by TNFα. Compounds were also compared to the activity of an anti-TNFα neutralizing antibody.

[2] = system: NZBxNZW mice; assay: SLE-glomerulonephritis in NZBxNZW mice; format: in vivo
Source text: New Zealand mice of the F1 hybrid cross NZBxNZW develop most of the autoimmune abnormalities seen in human SLE and die from SLE-like immune complex (IC)-mediated glomerulonephritis. The mice develop high titers of anti-DNA (double-strand and single-strand) and nuclear extract (NE) antibodies, as well as SLE-related clinical manifestations including leukopenia, thrombocytopenia, proteinuria and glomerulonephritis. These mice develop anti-DNA antibodies after the age of 3 months, with a peak of anti-DNA antibody response occurring at 7 months. Subsequently, the serum concentration of anti-DNA antibodies declines, presumably as a consequence of progressive uremia. The first serological manifestations of the disease occurs at about 150 days (5 months). Their survival is evaluated at approximately 250 days.
FIG. 2 illustrates the effect of compound 1 on the mortality of the NZBxNZW mice. Intravenous administration of compound or vehicle was undertaken once a week from week 18 to week 37. Treatment ceased for 11 weeks and was restarted at week 48 for the control and compound 1 groups. […] It also delays the appearance of symptoms and mortality up to week 45. FIG. 3 illustrates the proteinuria at week 48 to 51.

[3] = system: MRL/lpr mice; assay: SLE-like syndrome in MRL/lpr mice; format: in vivo; conditions: control group 10%
Source text: FIG. 5 is an example of the effect of compounds on survival of MRL/lpr mice. These mice also spontaneously develop SLE-like syndrome. MRL/lpr have a homozygous fas mutation, which accelerates autoimmunity. […] Furthermore, compounds 1 and 20 increase the survival (40%) compared to the control group (10%).

[4] = weekly intravenous, week 48 to week 52

Oc1ccc(CCNc2nc(NCCNc3nc(NCCc4ccc(O)cc4)nc(Nc4ccccc4)n3)nc(Nc3ccccc3)n2)cc1 [Compound 1]
inhibition at 10 µM ([1]; 1 × 10^−5M): 36.8% | inhibition at 20 µM ([1]; 2 × 10^−5M): 17.7% | inhibition at 40 µM ([1]; 4 × 10^−5M): -3.8% | inhibition at 5 µM ([1]; 5 × 10^−6M): 14.3% | delay of appearance of symptoms and mortality ([2]; intravenous once a week from week 18 to week 37): ≤ 45 week | mortality of NZBxNZW mice ([2]; intravenous once a week from week 18 to week 37, at week 37): reduces the mortality | extended survival ([2]; second SLE study, 65 weeks for control): up to 89 weeks | proteinuria: amount of protein greater than 5 g/liter ([2]; week 48 to 51, after 11 weeks without treatment): greater than the control | protein concentration (5 g/liter) in urine compared to the vehicle [2, 4]: decrease | trace amount of protein in urine (improvement in kidney filtration) [2, 4]: increase | survival of MRL/lpr mice [3]: 40%

Source: patent US7683061B2, “Triazine dimers for the treatment of autoimmune diseases” (ProMetic BioSciences Inc., priority 2003, dated 2010)
